The test system of one assay is Jurkat cells. The experiment in a line: Flow cytometry of GFP fluorescence in transduced Jurkat cells. The assay is classed as cell-based. Here is the method: Transduced cells either received no treatment or were treated with 40 μM of biotin for 15 minutes, 60-75 minutes or overnight (0/N).
The RPMI medium was supplemented with 14 μg/mL of avidin to chelate the existing biotin present in the medium.
(§1) After incubation with biotin, the cells were immediately transfer on ice, to inhibit or slow down the traffic of the cargo, followed by centrifugation (300 g, 4° C., 5 minutes), washed twice in cold 1×PBS (300 g, 4° C., 5 minutes) and incubated with live/dead fixable staining (20 minutes, on ice; Thermofisher). The cells were then washed twice in cold PBS (300 g, 4° C., 5 minutes) or FACS buffer (1×PBS, 1% BSA, 0.05% sodium azide, 1 mL EDTA 0.5 M, filtered and kept at 4° C.) and, when not analyzed immediately, the cells were fixed in 3% PFA-1×PBS (10 minutes, RT) and washed twice in 1×PBS.
Transduced cells either received no treatment or were treated with 40 μM of biotin for 6 hours.
Transduction of HEK293FT and Jurkat cells were done using the same volume v/v of particles for each construct increasingly.
The expression of the cytokine was evaluated by measuring GFP using flow cytometry, three days later for HEK293FT and more than six days later for Jurkat cells. […]
For both types of cells, the expression of the cytokine was evaluated by measuring GFP using flow cytometry, 3 days later for HEK293FT and more than 6 days later for Jurkat cells. […]
On the technique in general: Flow cytometry measures light scatter and fluorescence of single cells or particles in a stream.

The test system of assay [1] is Primary CD8+ T or CD4/CD8+ T cells. In words: Flow cytometry of GFP fluorescence in transduced primary T cells. The assay is classed as cell-based, human. Here is the method: T cells were isolated from leukocyte reduction system chamber (LRSC) from blood of healthy donors by negative selection using the EasySep Direct Human T cell isolation kit (STEM cells) or MACSxpress LRSC Pan T Cell Isolation Kit, human (Miltenyi) according to the manufacturer's instructions.
Primary CD8^+ T or CD4/CD8^+ T cells were plated into culture plates and transduced with said lentiviral particle at a MOI between 1 and 5 for 3 days.
Primary CD8^+ T or CD4/CD8^+ T cells were plated into culture plates for Flow cytometry assay.
To prevent cytokines released due to the possible presence of biotin in TexMacs buffer, 1 μg/mL of avidin was added to chelate biotin, starting from the day of transduction and following days of cell culture. […]
as §1

For the next assay, the system named is CTLL-2 NFκB cells. The experiment in a line: IL-2-induced proliferation of CTLL-2 NFκB cells. In kind it is cell-based. As to conditions: medium of transduced HeLa cells. The protocol:
The relative proliferation and NFκB response measured by luminescence in CTLL2 NFκB was determined as described by Mock et al. (2020. Sci Rep. 10(1):3234). Briefly, CTLL2 NFκB were starved for about 24 hours, i.e., incubated for 24 hours without IL-2 to reduce the background due to the presence of IL-2 in the medium. After starvation, the cells (approximately 50 000 cells/well) in a cell culture 96-well plate (flat bottom) were incubated with the supernatant of the transduced cells either non-treated or treated with biotin diluted at 1/80 to a final volume of 200 μL. The cells were incubated for 72 hours at 37° C. and 5% of C02.
For CTLL-2 proliferation, CellTiter 96 Aqueous One Solution (Promega) was used according to the manufacturer's instructions. Briefly, 100 μL of the cells medium were removed and 20 μL of CellTiter 96 Aqueous One Solution (Promega) were added and incubated at least for 1 hours at 37° C. and 5% of CO2 before reading the absorbance at 490 nm. The relative proliferation or luminescence was determined by dividing the absorbance of treated cells by non-treated cells.

In assay [2] the test system is HEK blue IL-2 reporter cell line. The experiment in a line: Cytokine activity of medium of transduced HeLa cells on reporter cell line HEK blue IL-2. In kind it is cell-based. As to conditions: no biotin. Here is the method:
Cells were treated with 40 μM biotin for 0 minute, 15 minutes, 60 minutes, 90 minutes, 120 minutes or 4320 minutes (=72 hours).
After treatment of the cells, the cell medium (1500 μL) was collected and centrifuged (300 g, 4° C., 5-10 minutes) to remove dead cells.
The cell medium of the RUSH-transduced cells was added into a cell culture 96-well plate (flat bottom) at a dilution 1/80 to 1/100 followed by the platting of HEK-Blue cells at approximately 50 000 cells/well. On the next day (after approximately 24 hours), 20 μL of the supernatant of these cells was transferred to a new plate and 180 μL of QUANTI-Blue substrate was added and incubated at 37° C. and 5% of C02 for 1-3 hours. The absorbance was then measured at 620 nm. The response ratio of the cytokines was determined by dividing the value of absorbance of the treated cells by non-treated cells. The values were them normalized to WT cells line.

In assay [3] the test system is HeLa cells. The experiment in a line: Immunofluorescence of transduced HeLa cells (GFP/Cherry staining), with or without biotin. As to conditions: 40 μM biotin. The assay is classed as cell-based. Here is the method: HeLa cells were plated on a cell culture plate and transduced with said lentiviral particle at a MOI between 1 and 5 for 2 days.
Transduced HeLa cells were plated on coverslip for immunofluorescence assay.
Transduced cells either received no treatment or were treated with 40 μM of biotin.
Cells for immunofluorescence assay were either treated or not with 40 μM or higher of biotin for 15 minutes, 75 minutes or 16 hours (steady-state).
Cells coated onto coverslips were washed once in 1×PBS buffer, fixed in 3% of paraformaldehyde (PFA) for 10-15 minutes at room temperature, then washed twice and alternatively incubated with 50 mM of NH4Cl-1×PBS for 5 minutes at room temperature to quench free aldehydes. The cells were then permeabilized using a solution of PBS containing 0.5% Bovine Serum Albumin (BSA) and 0.05% saponin (Saponin, Sigma-Aldrich) for 15 minutes at room temperature. The coverslips were mounted in Mowiol supplemented with DAPI (4′,6-diamidino-2-phenylindole) for DNA staining.

Assay [4] has as its system HeLa cells. In words: Western blot (GFP revelation) of cell medium and cell extract of transduced HeLa cells. The conditions noted are these: 40 μM biotin, 60 minutes or O/N. In kind it is cell-based. Here is the method: Cells for western blotting were treated either treated or not with 40 μM biotin or higher for 60 minutes or over-night (0/N).
After biotin treatment, the supernatant was recovered and centrifuged for removal of the detached or dead cells at 300 g, 4° C., for 5-10 minutes and kept on ice. While the cells (defined hereafter as pellet) were incubated with protein loading buffer 1×(5 mM Tris-HCl, pH 7.0, 30 mM ethylenediaminetetra acid (EDTA), pH 8.0; 0.01% bromophenol blue, 5% glycerol) for 5 minutes at room temperature, scratched and transfer to a new tube followed by denaturation at 95-100° C. for 10-20 minutes. The supernatant (from adherent or suspension cells) were incubated with StrataClean Resin (Agilent) to collect and concentrate protein present in the supernatant, for at least 2 hours at 4° C. with orbital agitation. […] Cytokines were detected using monoclonal anti-GFP (1/1000; Roche) in 5% skim milk in 0.1% Tween-20 PBS for 1 hour at room temperature or overnight (0/N) at 4° C., followed by the respective horseradish peroxidase (HRP) conjugated secondary polyclonal antibody (1/15000) in 5% skim milk in 0.1% Tween-20 PBS for 1 hour at room temperature. […]
For orientation: A western blot detects proteins with antibodies after separation by electrophoresis.

“Also recorded” adds a separate entry of the source.

As for “CCL5-SBP-eGFPhibit: RUSH system with CCL5 fused to SBP and to eGFP containing HiBit tag (SEQ ID NO: 604) (VSGWRLFKKIS; HiBit tag)”, the “GFP upon addition of biotin within 6 hours (flow cytometry)” value with Jurkat cells (40 μM biotin, 6 hours) is “showed a decrease in GFP-expressing cells”. Besides, the “Intracellular GFP expression without biotin treatment (flow cytometry)” value in the assay on Jurkat cells (no biotin) was “showed a proper intracellular GFP expression”. Besides, in assay [1] (40 μM biotin), the “GFP-expressing cells upon addition of biotin” value was “decrease of GFP-expressing cells”. Moreover, the “Efficiency of transduction / T cells expressing the cytokine” value in assay [1] (absence of biotin) is reported as 6%.

Take “SPCCL5-IL-2-SBP-eGFP: RUSH system with Interleukin-2 fused to SBP and eGFP using the signal peptide of CCL5 (SEQ ID NO: 603) (MKVSAAALAVILIATALCAPASA; Signal peptide of CCL5)”: in the assay on CTLL-2 NFκB cells (biotin 4320 minutes), the “CTLL-2-NFκB cell proliferation after 4320 minutes of biotin” value is on record as “seemed to better sustain cell activation”. The “CTLL-2-NFκB cell proliferation, biotin for more than 60 minutes” value in the assay with CTLL-2 NFκB cells (biotin more than 60 minutes) is “a significant increase in cell proliferation was observed”. Further, the “CTLL-2-NFκB cell proliferation in absence of biotin” value with CTLL-2 NFκB cells (no biotin) is given as “proliferated”. Besides, the “Response of the reporter cell line in the absence of biotin” value in assay [2] was “induced a small response by the reporter cell line”. In the assay with HeLa cells [3], the “Traffic and secretion of the cytokine upon biotin addition (immunofluorescence)” value is recorded as “After 15 minutes with biotin treatment, the cytokine was localized in the Golgi; also recorded: at 75 minutes, a high percentage of the cytokine still remained in the Golgi; also recorded: At 4 hours, most of the cytokine had been secreted”. In addition, the “Cytokine secretion in cell medium upon biotin addition (western blot)” value with HeLa cells [4] is given as “the highest secretion was observed after O/N with biotin”.

For the origin of these results see US20240084354A1, “MEANS AND METHODS FOR REGULATING INTRACELLULAR TRAFFICKING OF SECRETORY OR CELL MEMBRANE-ANCHORED PROTEINS OF INTEREST” (HONING BIOSCIENCES, priority 2020, published 2024).
